Values joined by “and” are separate entries in the source; they are usually repeats but may differ in a detail not shown here. Equal entries are not always repeated. ± gives the uncertainty stated by the source.
Experiment: xn = mol fraction of the nth substance listed

ClC(Cl)(Cl)Cl + C1COCCO1
101 kPa
Settings	viscosity
298.15 K, x1 = 0.1175	1.203 ± 0.012 mPa·s
298.15 K, x1 = 0.219	1.208 ± 0.012 mPa·s
298.15 K, x1 = 0.373	1.193 ± 0.012 mPa·s
298.15 K, x1 = 0.5081	1.165 ± 0.011 mPa·s
298.15 K, x1 = 0.675	1.093 ± 0.011 mPa·s
298.15 K, x1 = 0.8092	1.009 ± 0.01 mPa·s
298.15 K, x1 = 0.892	0.961 ± 0.009 mPa·s
303.15 K, x1 = 0.675	1.007 ± 0.01 mPa·s
303.15 K, x1 = 0.8092	0.938 ± 0.009 mPa·s
303.15 K, x1 = 0.892	0.896 ± 0.009 mPa·s
303.15 K, x2 = 0.0983	0.901 ± 0.009 mPa·s
303.15 K, x2 = 0.1116	0.907 ± 0.0065 mPa·s
303.15 K, x2 = 0.112	0.922 ± 0.015 mPa·s
303.15 K, x2 = 0.204	0.957 ± 0.009 mPa·s
303.15 K, x2 = 0.2198	0.9914 ± 0.007 mPa·s
303.15 K, x2 = 0.22	1.016 ± 0.017 mPa·s
303.15 K, x2 = 0.2994	1.011 ± 0.01 mPa·s
303.15 K, x2 = 0.4025	1.055 ± 0.01 mPa·s
303.15 K, x2 = 0.4985	1.086 ± 0.011 mPa·s
303.15 K, x2 = 0.53	1.163 ± 0.019 mPa·s
303.15 K, x2 = 0.5302	1.163 ± 0.008 mPa·s
303.15 K, x2 = 0.6286	1.164 ± 0.008 mPa·s
303.15 K, x2 = 0.629	1.164 ± 0.019 mPa·s
303.15 K, x2 = 0.7245	1.161 ± 0.0079 mPa·s
303.15 K, x2 = 0.725	1.161 ± 0.019 mPa·s
303.15 K, x2 = 0.91	1.078 ± 0.0074 mPa·s and 1.092 ± 0.018 mPa·s
308.15 K, x1 = 0.219	1.024 ± 0.01 mPa·s
308.15 K, x1 = 0.5081	0.992 ± 0.01 mPa·s
308.15 K, x1 = 0.675	0.93 ± 0.009 mPa·s
308.15 K, x1 = 0.8092	0.871 ± 0.009 mPa·s
308.15 K, x1 = 0.892	0.834 ± 0.008 mPa·s
313.15 K, x1 = 0.1175	0.95 ± 0.009 mPa·s
313.15 K, x1 = 0.219	0.945 ± 0.009 mPa·s
313.15 K, x1 = 0.373	0.934 ± 0.009 mPa·s
313.15 K, x1 = 0.5081	0.92 ± 0.009 mPa·s
313.15 K, x1 = 0.675	0.866 ± 0.009 mPa·s
313.15 K, x1 = 0.8092	0.81 ± 0.008 mPa·s
313.15 K, x1 = 0.892	0.778 ± 0.008 mPa·s
318.15 K, x1 = 0.1175	0.882 ± 0.009 mPa·s
318.15 K, x1 = 0.219	0.876 ± 0.009 mPa·s
318.15 K, x1 = 0.373	0.865 ± 0.009 mPa·s
318.15 K, x1 = 0.5081	0.85 ± 0.009 mPa·s
318.15 K, x1 = 0.675	0.806 ± 0.008 mPa·s
318.15 K, x1 = 0.8092	0.757 ± 0.008 mPa·s
318.15 K, x1 = 0.892	0.73 ± 0.007 mPa·s

ClC(Cl)(Cl)Cl + CCCCCCCCO
viscosity [mPa·s], 101 kPa
Settings	298.15 K	308.15 K	318.15 K
x2 = 0.023	0.92 ± 0.009	0.796 ± 0.008	0.696 ± 0.007
x2 = 0.06	1 ± 0.026	–	–
x2 = 0.1038	1.1 ± 0.01	0.937 ± 0.009	0.805 ± 0.008
x2 = 0.12	1.139 ± 0.03	–	–
x2 = 0.17	1.297 ± 0.034	–	–
x2 = 0.2244	1.468 ± 0.014	1.221 ± 0.012	1.029 ± 0.01
x2 = 0.23	1.47 ± 0.038	–	–
x2 = 0.3266	1.867 ± 0.017	1.527 ± 0.014	1.255 ± 0.012
x2 = 0.44	2.483 ± 0.065	–	–
x2 = 0.54	3.124 ± 0.081	–	–
x2 = 0.5645	3.223 ± 0.03	2.495 ± 0.023	1.946 ± 0.018
x2 = 0.64	3.847 ± 0.1	–	–
x2 = 0.7021	4.311 ± 0.039	3.197 ± 0.03	2.447 ± 0.023
x2 = 0.83	5.58 ± 0.14	–	–
x2 = 0.8568	5.746 ± 0.051	4.172 ± 0.038	3.118 ± 0.029

CCCC(C)=O + c1ccccc1
303.15 K, 101.32 kPa
Settings	viscosity [mPa·s]
x2 = 0.1304	0.469 ± 0.004
x2 = 0.2771	0.475 ± 0.004
x2 = 0.3294	0.484 ± 0.004
x2 = 0.4869	0.499 ± 0.004
x2 = 0.6257	0.515 ± 0.004
x2 = 0.6946	0.522 ± 0.004
x2 = 0.7707	0.532 ± 0.004
x2 = 0.9042	0.553 ± 0.004

CC(C)[O-].CC(C)[O-].CC(C)[O-].CC(C)[O-].[Ti+4] + CC(C)O
viscosity [mPa·s], 101.3 kPa
Settings	x1 = 0.0502	x1 = 0.1236	x1 = 0.2408	x1 = 0.4582	x1 = 0.6555
293.15 K	2.274 ± 0.14	2.136 ± 0.13	2.072 ± 0.12	2.134 ± 0.13	2.287 ± 0.14
303.15 K	1.659 ± 0.1	1.526 ± 0.092	1.458 ± 0.088	1.535 ± 0.093	1.498 ± 0.091
313.15 K	1.274 ± 0.077	1.185 ± 0.072	1.133 ± 0.068	1.167 ± 0.07	1.123 ± 0.068
323.15 K	0.9981 ± 0.06	0.9549 ± 0.058	0.9172 ± 0.055	0.9361 ± 0.057	0.9108 ± 0.055

CCC(C)(O)CC + CCO
298.15 K, 101.33 kPa
Settings	viscosity [mPa·s]
x2 = 0.1124	3.619 ± 0.029
x2 = 0.2131	3.405 ± 0.027
x2 = 0.299	3.345 ± 0.027
x2 = 0.4102	3.232 ± 0.026
x2 = 0.5116	3.007 ± 0.024
x2 = 0.6138	2.632 ± 0.021
x2 = 0.7104	2.203 ± 0.017
x2 = 0.7975	1.837 ± 0.015
x2 = 0.901	1.405 ± 0.011

ClC(Cl)(Cl)Cl + Cc1ccccc1C
298.15 K, 101 kPa
Settings	viscosity [mPa·s]
x1 = 0.0656	0.722 ± 0.011
x1 = 0.2424	0.636 ± 0.01
x1 = 0.4464	0.606 ± 0.009
x1 = 0.5536	0.628 ± 0.01
x1 = 0.5803	0.639 ± 0.01
x1 = 0.6341	0.666 ± 0.01
x1 = 0.793	0.772 ± 0.012
x1 = 0.9312	0.872 ± 0.014

ClC(Cl)(Cl)Cl + CS(C)=O
Settings	viscosity [mPa·s]
298 K, 101.3 kPa, x1 = 0.1093	2.001 ± 0.025
298 K, 101.3 kPa, x1 = 0.226	1.852 ± 0.023
298 K, 101.3 kPa, x1 = 0.4246	1.654 ± 0.019
298 K, 101.3 kPa, x1 = 0.5746	1.5 ± 0.017
298 K, 101.3 kPa, x1 = 0.6402	1.399 ± 0.015
298 K, 101.3 kPa, x1 = 0.8661	1.067 ± 0.011
303.15 K, 101.33 kPa, x1 = 0.2642	1.553 ± 0.016
303.15 K, 101.33 kPa, x1 = 0.3011	1.526 ± 0.015
303.15 K, 101.33 kPa, x1 = 0.3924	1.483 ± 0.015
303.15 K, 101.33 kPa, x1 = 0.4763	1.391 ± 0.014
303.15 K, 101.33 kPa, x1 = 0.5118	1.358 ± 0.014
303.15 K, 101.33 kPa, x1 = 0.5664	1.304 ± 0.013
318 K, 101.3 kPa, x1 = 0.114	1.312 ± 0.045
318 K, 101.3 kPa, x1 = 0.2398	1.25 ± 0.043
318 K, 101.3 kPa, x1 = 0.424	1.139 ± 0.04
318 K, 101.3 kPa, x1 = 0.5763	1.035 ± 0.036
318 K, 101.3 kPa, x1 = 0.8096	0.8725 ± 0.031

CC1CCCCC1O (stereo unspecified) + c1ccccc1
293.15 K, 101 kPa
Settings	viscosity
x2 = 0.33	3.2 ± 0.1 mPa·s
x2 = 0.5	1.8 ± 0.1 mPa·s
x2 = 0.6	1.5 ± 0.1 mPa·s
x2 = 0.7	1.3 ± 0.1 mPa·s
x2 = 0.8	1.1 ± 0.1 mPa·s and 1 ± 0.1 mPa·s

CCc1ccc(O)cc1 + C[N+](C)(C)CCO.[Cl-]
298.15 K, 101.33 kPa
Settings	viscosity
x1 = 0.7	143.3 ± 54 mPa·s
x1 = 0.8	84.18 ± 26 mPa·s and 62.12 ± 16 mPa·s and 53.08 ± 13 mPa·s
x1 = 0.9	49.12 ± 11 mPa·s

ClC(Cl)(Cl)Cl + O=C1CCCCC1
298.15 K, 101 kPa
Settings	viscosity [mPa·s]
x2 = 0.0951	1.017 ± 0.017
x2 = 0.2086	1.109 ± 0.019
x2 = 0.3074	1.193 ± 0.02
x2 = 0.4109	1.289 ± 0.021
x2 = 0.5072	1.381 ± 0.023
x2 = 0.6004	1.476 ± 0.024
x2 = 0.7013	1.577 ± 0.026
x2 = 0.8072	1.669 ± 0.027
x2 = 0.9023	1.754 ± 0.029

[Br-].[Li+] + CN1CCCC1=O
298.15 K, 101 kPa
Settings	viscosity [mPa·s]
x1 = 0.02596	2.385 ± 0.02
x1 = 0.02626	2.359 ± 0.02
x1 = 0.02735	2.37 ± 0.02
x1 = 0.05088	3.13 ± 0.024
x1 = 0.05114	3.124 ± 0.024
x1 = 0.05202	3.192 ± 0.024
x1 = 0.07505	4.349 ± 0.032
x1 = 0.07536	4.344 ± 0.032
x1 = 0.07626	4.329 ± 0.031

CCCOC(C)=O + O=S1(=O)CCCC1
101 kPa
Settings	viscosity [mPa·s]
303.15 K, x1 = 0.0177	9.305 ± 0.074
308.15 K, x2 = 0.6489	2.375 ± 0.021
313.15 K, x2 = 0.7639	3.185 ± 0.028

CCCOC(C)=O + CCCCCCCCO
viscosity [mPa·s], 101 kPa
Settings	x2 = 0.075	x2 = 0.1542	x2 = 0.2382	x2 = 0.3272	x2 = 0.4218	x2 = 0.5225	x2 = 0.6299	x2 = 0.7448	x2 = 0.8678
298.15 K	0.692 ± 0.042	0.851 ± 0.051	1.053 ± 0.063	1.316 ± 0.079	1.666 ± 0.1	2.143 ± 0.13	2.823 ± 0.17	3.811 ± 0.23	5.28 ± 0.32
303.15 K	0.638 ± 0.038	0.776 ± 0.047	0.955 ± 0.058	1.185 ± 0.071	1.488 ± 0.09	1.897 ± 0.11	2.47 ± 0.15	3.302 ± 0.2	4.526 ± 0.27
308.15 K	0.584 ± 0.035	0.705 ± 0.043	0.862 ± 0.052	1.061 ± 0.064	1.323 ± 0.08	1.671 ± 0.1	2.154 ± 0.13	2.848 ± 0.17	3.868 ± 0.23
313.15 K	0.533 ± 0.032	0.638 ± 0.038	0.774 ± 0.047	0.95 ± 0.057	1.177 ± 0.071	1.475 ± 0.089	1.885 ± 0.11	2.468 ± 0.15	3.326 ± 0.2
